Results: the supplement of paper PMC10307832

Columns and labels:
Assay in all cases: relative viability (nuclei count vs DMSO), 5 days (fraction); higher = more cells survive
[1] = tested on: ABC-1
Outline: (§1)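 Cells from lung cancer lines were seeded into 1536-well plates and, one day later, dosed by pin tool. Treatments were either a single drug or a fixed dose of an anchor drug with five library-drug doses (not always all listed) in √10 steps. After 5 days, nuclei were stained in a one-step fixation (final 0.05% Triton X-100, 1% formaldehyde, 1 ug/ml Hoechst) and counted on 4× images, and relative viability is the treated-to-vehicle nuclei ratio, as the median of duplicate plates.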

[2] = tested on: LC-2-ad
Outline: as §1

[3] = tested on: NCI-H1734
Outline: as §1

[4] = tested on: ChaGo-K-1
Outline: as §1

[5] = tested on: NCI-H1944
Outline: as §1

[6] = tested on: NCI-H2126
Outline: as §1

[7] = tested on: HCC-78
Outline: as §1

[8] = tested on: HCC-15
Outline: as §1

[9] = tested on: HARA
Outline: as §1

[10] = tested on: NCI-H2405
Outline: as §1

[11] = tested on: NCI-H1793
Outline: as §1

[12] = tested on: UMC-11
Outline: as §1

[13] = tested on: NCI-H2023
Outline: as §1

[14] = tested on: NCI-H23
Outline: as §1

[15] = tested on: NCI-H838
Outline: as §1

[16] = tested on: A-427
Outline: as §1

[17] = tested on: NCI-H2228
Outline: as §1

[18] = tested on: NCI-H2009
Outline: as §1

[19] = tested on: HCC-366
Outline: as §1

[20] = tested on: EMC-BAC-2
Outline: as §1

[21] = tested on: NCI-H1993
Outline: as §1

[22] = tested on: SK-LU-1
Outline: as §1

[23] = tested on: COR-L23
Outline: as §1

NC(=O)Nc1cc(-c2cccc(F)c2)sc1C(=O)N[C@H]1CCCNC1 [AZD7762] + N=C(N)NC(=N)NCCc1ccccc1 [Phenformin] (partner 250 µM) showed a relative viability ([1]; first compound 0.01 µM) of 0.273, a relative viability ([1]; first compound 0.03162 µM) of 0.249 and a relative viability ([1]; first compound 0.1 µM) of 0.268. It also gave a relative viability ([1]; first compound 0.3162 µM) of 0.203, a relative viability ([1]; first compound 1 µM) of 0.19 and a relative viability ([2]; first compound 0.01 µM) of 0.645. It also gave a relative viability ([2]; first compound 0.03162 µM) of 0.595, a relative viability ([2]; first compound 0.1 µM) of 0.555 and a relative viability ([2]; first compound 0.3162 µM) of 0.592. The relative viability ([2]; first compound 1 µM) was 0.342, the relative viability ([3]; first compound 0.01 µM) was 0.44 and the relative viability ([3]; first compound 0.03162 µM) was 0.44. For the same compound, the relative viability ([3]; first compound 0.1 µM) was 0.398, the relative viability ([3]; first compound 0.3162 µM) was 0.33 and the relative viability ([3]; first compound 1 µM) was 0.211. The relative viability ([4]; first compound 0.01 µM) was 0.517, the relative viability ([4]; first compound 0.03162 µM) was 0.513 and the relative viability ([4]; first compound 0.1 µM) was 0.479. The relative viability ([4]; first compound 0.3162 µM) was 0.468, the relative viability ([4]; first compound 1 µM) was 0.496 and the relative viability ([5]; first compound 0.01 µM) was 0.196. For the same compound, the relative viability ([5]; first compound 0.03162 µM) was 0.23, the relative viability ([5]; first compound 0.1 µM) was 0.231 and the relative viability ([5]; first compound 0.3162 µM) was 0.273. For the same compound, the relative viability ([5]; first compound 1 µM) was 0.21, the relative viability ([6]; first compound 0.01 µM) was 0.513 and the relative viability ([6]; first compound 0.03162 µM) was 0.593. It also gave a relative viability ([6]; first compound 0.1 µM) of 0.545, a relative viability ([6]; first compound 0.3162 µM) of 0.536 and a relative viability ([6]; first compound 1 µM) of 0.462. For the same compound, the relative viability ([7]; first compound 0.01 µM) was 0.737, the relative viability ([7]; first compound 0.03162 µM) was 1.12 and the relative viability ([7]; first compound 0.1 µM) was 0.766. It also gave a relative viability ([7]; first compound 0.3162 µM) of 0.718, a relative viability ([7]; first compound 1 µM) of 0.604 and a relative viability ([8]; first compound 0.01 µM) of 0.483. It also gave a relative viability ([8]; first compound 0.03162 µM) of 0.475, a relative viability ([8]; first compound 0.1 µM) of 0.432 and a relative viability ([8]; first compound 0.3162 µM) of 0.473. The relative viability ([8]; first compound 1 µM) was 0.445, the relative viability ([9]; first compound 0.01 µM) was 0.569 and the relative viability ([9]; first compound 0.03162 µM) was 0.509. The relative viability ([9]; first compound 0.1 µM) was 0.501, the relative viability ([9]; first compound 0.3162 µM) was 0.282 and the relative viability ([9]; first compound 1 µM) was 0.138. The relative viability ([10]; first compound 0.01 µM) was 0.4, the relative viability ([10]; first compound 0.03162 µM) was 0.452 and the relative viability ([10]; first compound 0.1 µM) was 0.402. For the same compound, the relative viability ([10]; first compound 0.3162 µM) was 0.425, the relative viability ([10]; first compound 1 µM) was 0.242 and the relative viability ([11]; first compound 0.01 µM) was 0.428. For the same compound, the relative viability ([11]; first compound 0.03162 µM) was 0.416, the relative viability ([11]; first compound 0.1 µM) was 0.278 and the relative viability ([11]; first compound 0.3162 µM) was 0.351. The relative viability ([11]; first compound 1 µM) was 0.279, the relative viability ([12]; first compound 0.01 µM) was 0.372 and the relative viability ([12]; first compound 0.03162 µM) was 0.322. It also gave a relative viability ([12]; first compound 0.1 µM) of 0.238, a relative viability ([12]; first compound 0.3162 µM) of 0.25 and a relative viability ([12]; first compound 1 µM) of 0.234. The relative viability ([13]; first compound 0.01 µM) was 0.446, the relative viability ([13]; first compound 0.03162 µM) was 0.394 and the relative viability ([13]; first compound 0.1 µM) was 0.255. The relative viability ([13]; first compound 0.3162 µM) was 0.171, the relative viability ([13]; first compound 1 µM) was 0.1 and the relative viability ([14]; first compound 0.01 µM) was 0.813. It also gave a relative viability ([14]; first compound 0.03162 µM) of 0.831, a relative viability ([14]; first compound 0.1 µM) of 0.808 and a relative viability ([14]; first compound 0.3162 µM) of 0.654. The relative viability ([14]; first compound 1 µM) was 0.434, the relative viability ([15]; first compound 0.01 µM) was 0.538 and the relative viability ([15]; first compound 0.03162 µM) was 0.566. The relative viability ([15]; first compound 0.1 µM) was 0.669, the relative viability ([15]; first compound 0.3162 µM) was 0.524 and the relative viability ([15]; first compound 1 µM) was 0.164. The relative viability ([16]; first compound 0.01 µM) was 0.255, the relative viability ([16]; first compound 0.03162 µM) was 0.346 and the relative viability ([16]; first compound 0.1 µM) was 0.292. For the same compound, the relative viability ([16]; first compound 0.3162 µM) was 0.304, the relative viability ([16]; first compound 1 µM) was 0.197 and the relative viability ([17]; first compound 0.01 µM) was 0.305. It also gave a relative viability ([17]; first compound 0.03162 µM) of 0.348, a relative viability ([17]; first compound 0.1 µM) of 0.223 and a relative viability ([17]; first compound 0.3162 µM) of 0.152. The relative viability ([17]; first compound 1 µM) was 0.13, the relative viability ([18]; first compound 0.01 µM) was 0.496 and the relative viability ([18]; first compound 0.03162 µM) was 0.535. It also gave a relative viability ([18]; first compound 0.1 µM) of 0.535, a relative viability ([18]; first compound 0.3162 µM) of 0.543 and a relative viability ([18]; first compound 1 µM) of 0.439. It also gave a relative viability ([19]; first compound 0.01 µM) of 0.601, a relative viability ([19]; first compound 0.03162 µM) of 0.615 and a relative viability ([19]; first compound 0.1 µM) of 0.627. It also gave a relative viability ([19]; first compound 0.3162 µM) of 0.485, a relative viability ([19]; first compound 1 µM) of 0.312 and a relative viability ([20]; first compound 0.01 µM) of 0.52. For the same compound, the relative viability ([20]; first compound 0.03162 µM) was 0.581, the relative viability ([20]; first compound 0.1 µM) was 0.542 and the relative viability ([20]; first compound 0.3162 µM) was 0.448. It also gave a relative viability ([20]; first compound 1 µM) of 0.474, a relative viability ([21]; first compound 0.01 µM) of 0.553 and a relative viability ([21]; first compound 0.03162 µM) of 0.504. It also gave a relative viability ([21]; first compound 0.1 µM) of 0.53, a relative viability ([21]; first compound 0.3162 µM) of 0.428 and a relative viability ([21]; first compound 1 µM) of 0.502. For the same compound, the relative viability ([22]; first compound 0.01 µM) was 0.563, the relative viability ([22]; first compound 0.03162 µM) was 0.494 and the relative viability ([22]; first compound 0.1 µM) was 0.17. For the same compound, the relative viability ([22]; first compound 0.3162 µM) was 0.139, the relative viability ([22]; first compound 1 µM) was 0.131 and the relative viability ([23]; first compound 0.01 µM) was 0.458. It also gave a relative viability ([23]; first compound 0.03162 µM) of 0.446, a relative viability ([23]; first compound 0.1 µM) of 0.515 and a relative viability ([23]; first compound 0.3162 µM) of 0.349. The relative viability ([23]; first compound 1 µM) was 0.131.
